Data: patent US7862844B2, “Taste improving substances” (Quest International Services B.V., priority 2005, dated 2011)

Assays:
[1] = tasting different fractions of the Example 1 product (LC-MS, 1H NMR identification); details: fractions of the lactic acid/GMP reaction product of Example 1
Procedure: 1000 g of lactic acid (about 90% pure), 50 g of NaCl and 250 g of GMP were thoroughly mixed. The mixture was heated and stirred at 100° C. for 4 hour. The mixture was cooled to 60° C. and 4000 g of ethyl acetate was added. The mixture was stirred for 1 h. Next, the mixture was filtered over a glass filter and the filter residue was washed with 1000 g ethyl acetate. Thus, 362 g of an almost white powder was obtained. The main taste components of the obtained product were identified by LC-MS and tasting different fractions.

[2] = samples tasted by a professional panel
Procedure: The following samples were prepared:
A: 0.6% NaCl and 0.03% MSG
B: 0.01% Fraction 2 as obtained in example 1
C: 0.6% NaCl and 0.03% MSG and 0.5 ppt Fraction B as obtained in example 1
D: 0.6% NaCl and 0.03% MSG and 0.4 ppb Fraction A as obtained in example 1
The samples were tasted by a professional panel and described as follows: […]

| Substance | taste of the fractions containing the substance [1] | taste description by professional panel ([2]; sample B: 0.01% of the fraction alone) | taste description by professional panel ([2]; sample C: 0.5 ppt of the fraction with 0.6% NaCl and 0.03% MSG (base alone: salty, umami)) | taste description by professional panel ([2]; sample D: 0.4 ppb of the fraction with 0.6% NaCl and 0.03% MSG (base alone: salty, umami)) |
| --- | --- | --- | --- | --- |
| N-Lactoyl-GMP [Fraction B] | “long-lasting” and “kokumi” | mild acidic, late onset umami, kokumi, full, sweet, very lingering | salty, umami, full, mouthfeel, kokumi, salivating and very lingering | – |
| O-Lactoyl-GMP [Fraction A] | “long-lasting” and “kokumi” | – | – | salty, umami, full, after taste and lingering |
